Measured values published in patent publication US20190031613A1, “COMPOUNDS AND METHODS FOR THEIR USE IN THE TREATMENT OF MALARIA” (University of South Florida, priority 2016, published 2019).
Values after ≈ are worked out from the molar mass of the structure shown. Blank lines part the entries; values can stand above or below the compound they belong to.

Key:
[1] = system: multidrug resistant malarial strain TM90-C2B (mefloquine, chloroquine, atovaquone, pyrimethamine resistant); test: in vitro antimalarial activity against strain TM90-C2B; format: cell-based; settings: internal controls of the in vitro assay
Description: (§1) FIG. 2a depicts the synthesis of 4(1H)-quinolones 1 via Conrad-Limpach reaction^24 and conversion to first set of prodrugs (2, 3 and 4) via O-acylation.
(§2) FIG. 4a depicts the synthesis of 4(1H)-quinolones 1 into amino AOCOM ether prodrugs 6 via O-alkylation and subsequent deprotection.

[2] = aqueous solubility at pH 2.5, UV-based assay; format: physicochemical; settings: aqueous solution at pH 2.5, pH 2.5, aqueous buffer; read-out: aqueous solubility at acidic pH
Description: Analogous to known AOCOM ether prodrugs, AOCOM iodides were used to prepare the desired prodrugs.^39 Thus, the synthesis route to the prodrugs commences with conversion of Boc-protected amino alcohols into corresponding Boc-protected aminoalkyloxycarbonyloxymethyl (amino AOCOM) iodides (FIG. 4a). Reaction of 4-quinolinols 1c′ and with the 1d′ with the Boc-protected amino AOCOM iodides, in presence of caesium carbonate, and subsequent deprotection leads to water-soluble HCl salts 6a-d (FIG. 4b). […] The assessment of the aqueous solubility at pH 7.4 was challenging due to the limited stability of the prodrug moiety at neutral pH and was not performed. […] In addition, solid material was rapidly dissolved in 0.5% aqueous HEC solution and visually inspected after 60 seconds for material dissolution.

[3] = system: P. berghei-GFP parasites; test: in vivo efficacy, modified Thompson test; design: species or system mice; settings: three daily doses days 3-5 PI, 0.5% aqueous HEC
Procedure: Prodrug 6d was orally tested for in vivo efficacy at four doses (0.3 mg/kg, 1.0 mg/kg, 3.0 mg/kg, and 10 mg/kg) in 0.5% aqueous HEC solution.

[4] = physchem; settings: pH 7.4, aqueous buffer
[5] = system: multidrug resistant malarial strain W2 (pyrimethamine and chloroquine resistant); test: in vitro antimalarial activity against strain W2; format: cell-based; settings: strains W2 and TM90-C2B, strain not specified
Description: as §1, §2

EC50 [1]: 0.005 µM
Compound: C[C@H]1[C@@H](O)O[C@@H]2O[C@@]3(C)CC[C@H]4[C@H](C)CC[C@@H]1[C@@]24OO3 [DHA, dihydroartemisinin, reference compound]

Compound: CNCCCOC(=O)OCOc1c(-c2ccccc2C)c(C)nc2cc(OC)c(Cl)cc12.Cl [6b, 6-Chloro-7-methoxy-2-methyl-3-(o-tolyl)-4-(((3-(methylammonio)propyloxycarbonyl)oxy)methoxy)quinoline, chloride salt]
solubility [2]: > 100 µM
Suppression [%] day 6 PI ([3]; 10 mg/kg PO): 52%
Day of death (avg) ([3]; 10 mg/kg PO, untreated 13): 13
Day of death (avg) ([3]; 50 mg/kg PO): 13
Suppression [%] day 6 PI ([3]; 50 mg/kg PO): 72%

solubility [4]: 1.2 µM (≈ 0.463 µg/mL)
in vitro antimalarial activity / EC50 values relative to 1c [5]: comparable to the EC50 values of 1c
Compound: CCOC(=O)Oc1c(-c2ccccc2C)c(C)nc2cc(OC)c(Cl)cc12 [compound 4, 6-Chloro-7-methoxy-2-methyl-3-(o-tolyl)-4-((ethoxycarbonyl)oxy)quinoline]

EC50 [1]: 18.4 µM
Compound: O=C1C(O)=C([C@H]2CC[C@H](c3ccc(Cl)cc3)CC2)C(=O)c2ccccc21 [ATO, atovaquone, reference compound]
